The record followed here is article PMC5856786, “A DHODH inhibitor increases p53 synthesis and enhances tumor cell killing by p53 degradation blockage” (Nature Communications, 2018).

Molecules are shown by their SMILES. Structures can show the parent of a compound that is named as a salt.

The target in this experiment is recombinant human DHODH (Homo sapiens, UniProt Q02127). Briefly: Endpoint DHODH enzyme assay (coenzyme Q10, DCIP). The experiment is classed as biochemical. Also on record: purchased Prospecbio ENZ-642. Conditions: compound at 10 µM. The method, then:
In Supplementary Tables 5 and 6, endpoint assays were performed with 10 nM recombinant human DHODH (#ENZ-642, Prospecbio). The reaction mixture consisted of 624.6 µM DL-dihydroorotic acid, 66.4 µM coenzyme Q10, 66.4 µM 2,6-dichlorophenolindophenol sodium salt (DCIP) (all reagents purchased from Sigma-Aldrich) in enzyme buffer (50 mM Tris-HCl, pH 8.0, 0.1% Triton X-100, 150 mM KCl). Loss in absorbance by DCIP was measured at 595 nm after incubation at RT for 60 min.

[1] abbreviates: Supplementary Table 5, 20,000 compound library.
The mark [2] stands for this setting: Supplementary Table 6, 30,000 compound library.

Chain of recombinant human DHODH (Q02127 31-395 limits assumed): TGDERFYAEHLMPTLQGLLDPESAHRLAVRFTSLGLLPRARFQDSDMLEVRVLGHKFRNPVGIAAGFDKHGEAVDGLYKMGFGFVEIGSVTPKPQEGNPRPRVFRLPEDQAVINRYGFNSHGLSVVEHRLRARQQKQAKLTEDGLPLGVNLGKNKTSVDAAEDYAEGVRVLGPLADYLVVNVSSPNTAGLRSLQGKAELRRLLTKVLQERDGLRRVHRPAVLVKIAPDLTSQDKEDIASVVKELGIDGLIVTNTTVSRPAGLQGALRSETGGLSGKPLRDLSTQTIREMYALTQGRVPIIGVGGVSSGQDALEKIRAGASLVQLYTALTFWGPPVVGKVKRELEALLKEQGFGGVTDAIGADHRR

As for `COc1cccc(-c2noc(-c3ccc(N4C[C@H]5CC[C@H]4C5)nc3)n2)c1OC` (relative stereo) [compound 75901793, (1S*,4S*)-2-{5-[3-(2,3-dimethoxyphenyl)-1,2,4-oxadiazol-5-yl]-2-pyridinyl}-2-azabicyclo[2.2.1]heptane], the “remaining DHODH activity (%) Average” value under setting [1] was 5.94%.

For orientation: remaining activity means the signal under treatment as a percentage of the control signal. For `Cc1cccn(CC(=O)c2ccc(-c3ccccc3)cc2)c1=N` [compound 5120580, 1-(4-biphenylyl)-2-(2-imino-3-methyl-1(2H)-pyridinyl)ethanone hydrobromide], the remaining activity at 10 µM under setting [2] was determined as 19.2%.

For the compound `O=C(Nc1ccc2ccccc2c1)C12CC3CC(CC(C3)C1)C2` [compound 5135537, N-2-naphthyl-1-adamantanecarboxamide], the remaining activity at 10 µM under setting [1] amounted to 32%.

Take `COCCOC(=O)Nc1nc2sc3c(c2s1)CCCC3` [compound 5175570, 2-methoxyethyl 5,6,7,8-tetrahydro[1]benzothieno[2,3-d][1,3]thiazol-2-ylcarbamate]: under setting [2], the remaining activity at 10 µM amounted to 101%.

As for `CCN(CC)c1ccc2cc(-c3nc4ccccc4n3C)c(=O)oc2c1` [compound 5213776, 7-(diethylamino)-3-(1-methyl-1H-benzimidazol-2-yl)-2H-chromen-2-one], the remaining activity at 10 µM under setting [2] amounted to 96.8%.

Regarding `CCN(CC)c1ccc2cc(-c3nc4ccccc4o3)c(=O)oc2c1` [compound 5213777, 3-(1,3-benzoxazol-2-yl)-7-(diethylamino)-2H-chromen-2-one], the remaining activity at 10 µM under setting [2] was 92.1%.

Regarding `COc1ccccc1NC1=CC(=O)CC(c2ccccc2)C1` (centres unmarked) [compound 5220809, 3-[(2-methoxyphenyl)amino]-5-phenyl-2-cyclohexen-1-one], under setting [2], the remaining activity at 10 µM was 100%.

As for `O=C1NC(c2ccc3ccccc3c2)Nc2sc3c(c21)CCCC3` (centres unmarked) [compound 5232020, 2-(2-naphthyl)-2,3,5,6,7,8-hexahydro[1]benzothieno[2,3-d]pyrimidin-4(1H)-one], the remaining activity at 10 µM under setting [2] is 43.5%.

In the case of `O=C1C(O)=C(c2ccc(-c3ccccc3)cc2)C(=O)c2ccccc21` [compound 5248918, 2-(4-biphenylyl)-3-hydroxynaphthoquinone], the “remaining DHODH activity (%) Average” value under setting [2] was -1.54%.

With `O=C(NN=Cc1ccc(Br)cc1)C1COc2ccccc2O1` (centres unmarked) [compound 5249701, N'-(4-bromobenzylidene)-2,3-dihydro-1,4-benzodioxine-2-carbohydrazide], the remaining activity at 10 µM under setting [2] came to 100%.

With `CCOC(=O)c1c(-c2ccccc2)csc1NC(=O)c1cc(OC)c(OC)c(OC)c1` [compound 5264537, ethyl 4-phenyl-2-[(3,4,5-trimethoxybenzoyl)amino]-3-thiophenecarboxylate], the remaining activity at 10 µM under setting [1] was 82.9%.

As for `Brc1ccc2[nH]c3c(c2c1)CCCC3NCCc1ccccc1` (centres unmarked) [compound 5265927, 6-bromo-N-(2-phenylethyl)-2,3,4,9-tetrahydro-1H-carbazol-1-amine hydrochloride], the remaining activity at 10 µM under setting [2] was found to be 55.7%.

Regarding `Oc1ccccc1C=Nc1ccc2cc3ccc(N=Cc4ccccc4O)cc3nc2c1` [compound 5267938, 2,2'-[3,6-acridinediylbis(nitrilomethylylidene)]diphenol], the “remaining DHODH activity (%) Average” value under setting [2] worked out at 98.57%.

As for `COc1ccccc1N1CCN(C(=O)c2ccc(Cl)c([N+](=O)[O-])c2)CC1` [compound 5276937, 1-(4-chloro-3-nitrobenzoyl)-4-(2-methoxyphenyl)piperazine], the remaining activity at 10 µM under setting [2] was 97.5%.

For the compound `COc1ccccc1N1C(=O)C(=C2C(=O)Nc3ccc(Br)cc32)SC1=S` [compound 5284467, 5-bromo-3-[3-(2-methoxyphenyl)-4-oxo-2-thioxo-1,3-thiazolidin-5-ylidene]-1,3-dihydro-2H-indol-2-one], the “remaining DHODH activity (%) Average” value under setting [2] worked out at 98.93%.

`Nc1cccc2c1C(=O)c1cccc(NC(=O)c3ccccc3)c1C2=O` [compound 5301107, N-(5-amino-9,10-dioxo-9,10-dihydro-1-anthracenyl)benzamide]: the remaining activity at 10 µM under setting [2] is 100%.

Consider `Cc1ccc2[nH]c3c(c2c1)CCCC3NC1CCCCC1` (centres unmarked) [compound 5303009, N-cyclohexyl-6-methyl-2,3,4,9-tetrahydro-1H-carbazol-1-amine], for which the remaining activity at 10 µM under setting [2] was found to be 12.6%.

On to `O=C(NN=CC(Br)=Cc1ccccc1)c1n[nH]c2c1CCC2` [compound 5313702, N'-(2-bromo-3-phenyl-2-propen-1-ylidene)-1,4,5,6-tetrahydrocyclopenta[c]pyrazole-3-carbohydrazide], for which the “remaining DHODH activity (%) Average” value under setting [2] is listed as 92.49%.

Regarding `Cc1ccccc1C=Nc1ccccc1C(N)=O` [compound 5320101, 2-[(2-methylbenzylidene)amino]benzamide], the remaining activity at 10 µM under setting [2] came out at 101%.

As for `NC(=O)c1ccccc1N=Cc1cccc(Cl)c1` [compound 5321611, 2-[(3-chlorobenzylidene)amino]benzamide], the remaining activity at 10 µM under setting [2] is 97.6%.

Take `O=c1c(Cl)c(Cl)cnn1-c1ccc(Cl)c(C(F)(F)F)c1` [compound 5344759, 4,5-dichloro-2-[4-chloro-3-(trifluoromethyl)phenyl]-3(2H)-pyridazinone]: the remaining activity at 10 µM under setting [2] was 98.8%.

For the compound `O=C(NN=Cc1ccc(O)cc1)c1cc(-c2ccccc2)nc2ccccc12` [compound 5347717, N'-(4-hydroxybenzylidene)-2-phenyl-4-quinolinecarbohydrazide], the remaining activity at 10 µM under setting [2] is 8.96%.

`O=C(Nc1cc(Cl)ccc1Cl)c1ccc([N+](=O)[O-])o1` [compound 5351342, N-(2,5-dichlorophenyl)-5-nitro-2-furamide]: the remaining activity at 10 µM under setting [1] was found to be 90.4%.

In the case of `COc1ccc(S(=O)(=O)Nc2ccc(I)cc2C)cc1` [compound 5351654, N-(4-iodo-2-methylphenyl)-4-methoxybenzenesulfonamide], the remaining activity at 10 µM under setting [2] came out at 99.2%.

As for `CCc1ccc(NC(=O)c2ccc([N+](=O)[O-])o2)cc1` [compound 5351720, N-(4-ethylphenyl)-5-nitro-2-furamide], under setting [1], the remaining activity at 10 µM was 73.5%.

For `COc1ccc(Cl)cc1NC(=O)c1ccc([N+](=O)[O-])o1` [compound 5356839, N-(5-chloro-2-methoxyphenyl)-5-nitro-2-furamide], the remaining activity at 10 µM under setting [1] was found to be 83.8%.

For the compound `c1ccc(NN=C2CCc3ccccc3N2)cc1` [compound 5373649, 3,4-dihydro-2(1H)-quinolinone phenylhydrazone hydrochloride], the remaining activity at 10 µM under setting [2] came to 101%.

`NN=C1CCCc2c1[nH]c1ccc(Br)cc21` [compound 5373779, 6-bromo-2,3,4,9-tetrahydro-1H-carbazol-1-one hydrazone]: under setting [2], the remaining activity at 10 µM stood at 58.2%.

Turning to `Cc1ccc(C=NNC(=O)c2c(C)nc3ccc(Cl)cn23)cc1` [compound 5378429, 6-chloro-2-methyl-N'-(4-methylbenzylidene)imidazo[1,2-a]pyridine-3-carbohydrazide], the remaining activity at 10 µM under setting [2] came out at 100%.

`Cc1ccc(OCC(=O)NN=Cc2ccc(-c3ccc(Br)cc3)o2)cc1` [compound 5472837, N'-{[5-(4-bromophenyl)-2-furyl]methylene}-2-(4-methylphenoxy)acetohydrazide]: under setting [2], the remaining activity at 10 µM came to 98.4%.

For `O=C(NN=Cc1cccc(Oc2ccccc2)c1)c1cccc([N+](=O)[O-])c1` [compound 5545710, 3-nitro-N'-(3-phenoxybenzylidene)benzohydrazide], under setting [2], the remaining activity at 10 µM amounted to 98%.

For the compound `Cc1ccc(C=NNC(=O)COc2ccccc2Br)c(C)c1` [compound 5554099, 2-(2-bromophenoxy)-N'-(2,4-dimethylbenzylidene)acetohydrazide], under setting [2], the remaining activity at 10 µM was found to be 78.1%.

With `COc1ccc(CNc2ccc(Br)c(C)c2)cc1Br` [compound 5561538, (3-bromo-4-methoxybenzyl)(4-bromo-3-methylphenyl)amine], the remaining activity at 10 µM under setting [2] is 42.5%.

Turning to `O=c1[nH]c(C=Cc2ccccc2)nc2sc3c(c12)CCCC3` [compound 5625039, 2-(2-phenylvinyl)-5,6,7,8-tetrahydro[1]benzothieno[2,3-d]pyrimidin-4(3H)-one], under setting [2], the remaining activity at 10 µM was determined as 98.4%.

On to `Cn1c2ccccc2n2c(C(O)C(Cl)(Cl)Cl)c(-c3ccccc3)nc12` (centres unmarked) [compound 5650027, 2,2,2-trichloro-1-(9-methyl-2-phenyl-9H-imidazo[1,2-a]benzimidazol-3-yl)ethanol], for which the remaining activity at 10 µM under setting [2] came out at 68.4%.

With `Cc1ccc2[nH]c3c(c2c1)CCCC3NC=C1C(=O)CC(C)(C)CC1=O` (centres unmarked) [compound 5666613, 5,5-dimethyl-2-{[(6-methyl-2,3,4,9-tetrahydro-1H-carbazol-1-yl)amino]methylene}-1,3-cyclohexanedione], under setting [2], the “remaining DHODH activity (%) Average” value was found to be 92.20%.

For `O=C1Nc2ccccc2C1=CNC1CCCc2c1[nH]c1ccccc21` (centres unmarked) [compound 5666718, 3-[(2,3,4,9-tetrahydro-1H-carbazol-1-ylamino)methylene]-1,3-dihydro-2H-indol-2-one], under setting [2], the remaining activity at 10 µM was found to be 48.5%.

Turning to `O=C(Nc1nc2ccccc2s1)C1c2ccccc2Oc2ccccc21` [compound 5704541, N-1,3-benzothiazol-2-yl-9H-xanthene-9-carboxamide], the remaining activity at 10 µM under setting [2] worked out at 71%.

For `COc1ccc2c(c1)c(C=Cc1nc3ccccc3c(=O)[nH]1)c(C)n2C` [compound 5705453, 2-[2-(5-methoxy-1,2-dimethyl-1H-indol-3-yl)vinyl]-4(3H)-quinazolinone], the remaining activity at 10 µM under setting [2] stood at 66.1%.

Consider `CN(C)c1ccc(C=Cc2nc3ccccc3c(=O)[nH]2)cc1` [compound 5705506, 2-{2-[4-(dimethylamino)phenyl]vinyl}-4(3H)-quinazolinone], for which the remaining activity at 10 µM under setting [2] came out at 82.5%.

On to `CCOc1ccc(S(=O)(=O)Nc2cc(Br)c3oc(C)c(C(C)=O)c3c2)cc1` [compound 5754791, N-(3-acetyl-7-bromo-2-methyl-1-benzofuran-5-yl)-4-ethoxybenzenesulfonamide], for which the remaining activity at 10 µM under setting [2] came to 96.8%.
